ChEMBL document CHEMBL5678818, “Discovery of potent SOS1 inhibitors that block RAS activation via disruption of the RAS-SOS1 interaction” (Proc Natl Acad Sci U S A, 2019)

Experiments:
[1] = target: Tyrosine-protein kinase Blk (Homo sapiens) (UniProt P51451); assay: Inhibition of BLK (unknown origin) assessed as residual activity at 1000 nM by KINOMEscan analysis relative to control
[2] = target: Bone morphogenetic protein receptor type-1A (Homo sapiens) (UniProt P36894); assay: Inhibition of BMPR1A (unknown origin) assessed as residual activity at 1000 nM by KINOMEscan analysis relative to control
Bone morphogenetic protein receptor type-1A (Homo sapiens), sequence (P36894 whole entry, canonical isoform): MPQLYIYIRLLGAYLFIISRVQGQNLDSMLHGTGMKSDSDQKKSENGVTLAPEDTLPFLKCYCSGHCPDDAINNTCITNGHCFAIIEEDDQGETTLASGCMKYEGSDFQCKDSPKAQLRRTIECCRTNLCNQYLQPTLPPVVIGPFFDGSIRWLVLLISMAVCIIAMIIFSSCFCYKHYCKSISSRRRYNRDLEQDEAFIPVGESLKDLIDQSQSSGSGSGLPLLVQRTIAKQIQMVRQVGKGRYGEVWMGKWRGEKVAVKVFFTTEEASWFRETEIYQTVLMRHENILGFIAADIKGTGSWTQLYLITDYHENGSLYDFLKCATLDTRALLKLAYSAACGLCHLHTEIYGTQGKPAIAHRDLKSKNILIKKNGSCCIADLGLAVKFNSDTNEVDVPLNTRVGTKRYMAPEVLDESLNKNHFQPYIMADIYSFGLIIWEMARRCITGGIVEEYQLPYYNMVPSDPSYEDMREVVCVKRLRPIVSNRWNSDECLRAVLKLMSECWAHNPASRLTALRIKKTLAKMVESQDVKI

[3] = target: Casein kinase I isoform gamma-3 (Homo sapiens) (UniProt Q9Y6M4); assay: Inhibition of CSNK1G3 (unknown origin) assessed as residual activity at 1000 nM by KINOMEscan analysis relative to control
Casein kinase I isoform gamma-3 (Homo sapiens), sequence (Q9Y6M4 whole entry, looked up, canonical isoform): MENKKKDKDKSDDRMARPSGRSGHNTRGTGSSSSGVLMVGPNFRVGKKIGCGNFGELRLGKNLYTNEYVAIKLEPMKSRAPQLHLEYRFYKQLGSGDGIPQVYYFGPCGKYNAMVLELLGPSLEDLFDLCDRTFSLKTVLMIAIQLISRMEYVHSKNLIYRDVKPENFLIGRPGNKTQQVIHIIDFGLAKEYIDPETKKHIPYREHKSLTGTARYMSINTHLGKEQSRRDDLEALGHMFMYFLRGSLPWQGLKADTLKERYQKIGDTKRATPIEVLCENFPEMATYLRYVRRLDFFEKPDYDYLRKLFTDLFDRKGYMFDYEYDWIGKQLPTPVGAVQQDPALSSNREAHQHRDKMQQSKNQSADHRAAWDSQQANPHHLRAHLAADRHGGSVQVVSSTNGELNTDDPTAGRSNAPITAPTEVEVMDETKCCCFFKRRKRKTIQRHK

[4] = tested on: Epidermal growth factor receptor (Homo sapiens), P00533 [G719C]; assay: Inhibition of EGFR G719C mutant (unknown origin) assessed as residual activity at 1000 nM by KINOMEscan analysis relative to control
[5] = target: T1, Mitogen-activated protein kinase kinase kinase 2 (Homo sapiens) (UniProt Q9Y2U5); assay: Inhibition of MAP3K2 (unknown origin) assessed as residual activity at 1000 nM by KINOMEscan analysis relative to control
T1 sequence (whole entry): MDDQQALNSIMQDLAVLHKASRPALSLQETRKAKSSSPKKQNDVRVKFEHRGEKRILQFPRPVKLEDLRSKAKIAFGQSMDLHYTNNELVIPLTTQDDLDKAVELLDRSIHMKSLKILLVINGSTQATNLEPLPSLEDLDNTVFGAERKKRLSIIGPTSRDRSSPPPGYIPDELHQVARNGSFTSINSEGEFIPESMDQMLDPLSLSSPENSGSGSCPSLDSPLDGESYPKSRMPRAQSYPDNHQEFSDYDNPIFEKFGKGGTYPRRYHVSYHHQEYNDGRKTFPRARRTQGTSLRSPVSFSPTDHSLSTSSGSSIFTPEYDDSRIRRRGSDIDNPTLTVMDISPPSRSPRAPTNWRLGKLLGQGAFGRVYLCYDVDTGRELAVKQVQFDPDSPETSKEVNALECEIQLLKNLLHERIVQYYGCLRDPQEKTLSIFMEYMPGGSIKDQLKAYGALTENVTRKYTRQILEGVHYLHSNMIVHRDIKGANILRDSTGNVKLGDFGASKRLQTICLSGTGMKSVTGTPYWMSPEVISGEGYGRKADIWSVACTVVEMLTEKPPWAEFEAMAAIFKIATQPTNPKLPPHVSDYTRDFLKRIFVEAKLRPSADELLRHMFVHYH

[6] = target: Serine/threonine-protein kinase PAK 5 (Homo sapiens) (UniProt Q9P286); assay: Inhibition of PAK7 (unknown origin) assessed as residual activity at 1000 nM by KINOMEscan analysis relative to control
Serine/threonine-protein kinase PAK 5 (Homo sapiens), sequence (Q9P286 whole entry, looked up): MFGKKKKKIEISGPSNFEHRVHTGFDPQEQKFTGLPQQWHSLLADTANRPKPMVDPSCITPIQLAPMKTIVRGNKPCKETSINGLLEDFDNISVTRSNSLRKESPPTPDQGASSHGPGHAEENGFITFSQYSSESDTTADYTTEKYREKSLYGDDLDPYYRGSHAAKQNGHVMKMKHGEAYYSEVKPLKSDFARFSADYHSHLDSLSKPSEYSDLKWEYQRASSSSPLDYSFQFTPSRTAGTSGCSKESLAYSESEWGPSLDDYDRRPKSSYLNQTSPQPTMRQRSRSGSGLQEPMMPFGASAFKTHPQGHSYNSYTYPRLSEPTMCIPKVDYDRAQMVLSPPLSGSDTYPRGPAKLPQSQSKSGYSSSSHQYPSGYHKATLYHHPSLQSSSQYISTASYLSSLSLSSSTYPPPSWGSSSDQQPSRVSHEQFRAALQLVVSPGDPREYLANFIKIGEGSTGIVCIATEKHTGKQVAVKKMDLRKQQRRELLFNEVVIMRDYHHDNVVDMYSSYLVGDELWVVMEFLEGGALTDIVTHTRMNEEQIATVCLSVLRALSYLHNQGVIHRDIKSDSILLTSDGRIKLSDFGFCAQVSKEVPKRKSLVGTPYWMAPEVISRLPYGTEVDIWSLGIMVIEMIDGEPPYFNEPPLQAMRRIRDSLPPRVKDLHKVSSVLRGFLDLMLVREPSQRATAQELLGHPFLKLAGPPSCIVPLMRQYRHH

[7] = target: Cyclin-dependent kinase 15 (Homo sapiens) (UniProt Q96Q40); assay: Inhibition of PFTAIRE2 (unknown origin) assessed as residual activity at 1000 nM by KINOMEscan analysis relative to control
Cyclin-dependent kinase 15 (Homo sapiens), sequence (Q96Q40 whole entry): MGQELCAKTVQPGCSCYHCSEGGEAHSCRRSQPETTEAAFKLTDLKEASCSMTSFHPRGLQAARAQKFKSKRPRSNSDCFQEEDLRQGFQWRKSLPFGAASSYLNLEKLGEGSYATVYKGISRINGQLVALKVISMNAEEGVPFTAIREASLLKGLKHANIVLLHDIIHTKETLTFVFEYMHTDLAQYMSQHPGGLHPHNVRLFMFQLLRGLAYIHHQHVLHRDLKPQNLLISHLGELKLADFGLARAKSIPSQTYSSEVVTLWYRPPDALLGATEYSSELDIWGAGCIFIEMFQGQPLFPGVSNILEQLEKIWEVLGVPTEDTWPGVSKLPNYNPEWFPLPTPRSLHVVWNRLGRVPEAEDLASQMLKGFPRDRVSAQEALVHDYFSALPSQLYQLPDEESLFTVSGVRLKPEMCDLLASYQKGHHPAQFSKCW

[8] = target: T2, cAMP-dependent protein kinase catalytic subunit PRKX (Homo sapiens) (UniProt P51817); assay: Inhibition of PRKX (unknown origin) assessed as residual activity at 1000 nM by KINOMEscan analysis relative to control
T2 sequence (whole entry): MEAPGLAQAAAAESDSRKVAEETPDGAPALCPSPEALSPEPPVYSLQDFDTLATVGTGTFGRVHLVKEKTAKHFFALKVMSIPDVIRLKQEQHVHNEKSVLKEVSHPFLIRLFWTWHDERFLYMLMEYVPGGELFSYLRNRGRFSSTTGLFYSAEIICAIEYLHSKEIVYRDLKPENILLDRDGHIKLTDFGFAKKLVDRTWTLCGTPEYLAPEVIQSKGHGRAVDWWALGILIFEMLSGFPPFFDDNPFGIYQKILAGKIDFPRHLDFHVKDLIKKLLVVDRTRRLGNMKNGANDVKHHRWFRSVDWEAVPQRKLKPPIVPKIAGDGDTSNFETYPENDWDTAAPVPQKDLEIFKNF

[9] = target: Serine/threonine-protein kinase 4 (Homo sapiens) (UniProt Q13043); assay: Inhibition of MST1 (unknown origin) assessed as residual activity at 1000 nM by KINOMEscan analysis relative to control
Serine/threonine-protein kinase 4 (Homo sapiens), sequence (Q13043 whole entry, looked up): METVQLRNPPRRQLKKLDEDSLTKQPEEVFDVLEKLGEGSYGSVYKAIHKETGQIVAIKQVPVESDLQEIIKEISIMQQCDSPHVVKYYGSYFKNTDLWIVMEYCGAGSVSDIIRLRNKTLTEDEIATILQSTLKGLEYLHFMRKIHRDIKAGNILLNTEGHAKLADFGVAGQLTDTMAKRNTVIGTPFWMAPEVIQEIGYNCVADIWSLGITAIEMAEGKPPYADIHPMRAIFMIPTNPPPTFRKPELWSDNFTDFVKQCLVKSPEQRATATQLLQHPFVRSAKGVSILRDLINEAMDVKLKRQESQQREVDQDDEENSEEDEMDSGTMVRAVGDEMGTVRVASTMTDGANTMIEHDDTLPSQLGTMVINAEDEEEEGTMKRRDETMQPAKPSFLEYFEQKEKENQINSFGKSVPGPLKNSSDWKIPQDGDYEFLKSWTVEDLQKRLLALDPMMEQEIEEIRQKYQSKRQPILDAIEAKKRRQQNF

Tyrosine-protein kinase Blk (Homo sapiens), sequence (P51451 2-505 limits assumed): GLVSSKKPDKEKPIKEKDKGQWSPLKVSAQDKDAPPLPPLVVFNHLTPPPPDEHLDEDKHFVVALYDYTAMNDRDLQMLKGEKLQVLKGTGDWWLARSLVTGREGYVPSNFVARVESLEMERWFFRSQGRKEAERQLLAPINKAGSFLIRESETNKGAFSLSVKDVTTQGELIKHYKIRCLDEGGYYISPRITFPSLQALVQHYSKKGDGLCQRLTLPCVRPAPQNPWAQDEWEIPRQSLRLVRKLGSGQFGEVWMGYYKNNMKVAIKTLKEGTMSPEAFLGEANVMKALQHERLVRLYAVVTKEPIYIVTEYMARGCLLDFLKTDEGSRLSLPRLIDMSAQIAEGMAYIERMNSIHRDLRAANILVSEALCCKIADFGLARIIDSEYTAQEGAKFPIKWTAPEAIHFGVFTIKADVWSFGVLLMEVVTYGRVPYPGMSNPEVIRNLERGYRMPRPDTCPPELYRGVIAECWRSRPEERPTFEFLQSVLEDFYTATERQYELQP

| Structure (SMILES) | Activity [1] | Activity [2] | Activity [3] | Activity [4] | Activity [5] | Activity [6] | Activity [7] | Activity [8] | Activity [9] |
| --- | --- | --- | --- | --- | --- | --- | --- | --- | --- |
| COc1cc2nc(C)nc(N[C@H](C)c3cccc(-c4cn[nH]c4)c3)c2cc1OC | 100% | 97% | 80% | 77% | 76% | 96% | 94% | 100% | 97% |
| COc1cc2ncnc(N[C@H](C)c3cccc4ccccc34)c2cc1OC | 53% | 100% | 100% | 1.6% | 100% | 100% | 100% | 96% | 99% |
